Test: Stability testing of crystal form I of Canagliflozin
Format: physicochemical
[1] = placed at 25 ± 2° C. and a humidity of RH92.5% for 30 days
[2] = placed at 40 ± 2° C. for 30 days
[3] = placed at 60 ± 2° C. for 30 days

Compound: Cc1ccc([C@@H]2O[C@H](CO)[C@@H](O)[C@H](O)[C@H]2O)cc1Cc1ccc(-c2ccc(F)cc2)s1 [crystal form I of Canagliflozin, 1-(β-D-glucopyranosyl)-4-methyl-3-[5-(4-fluorophenyl)-2-thienylmethyl]benzene]
- HPLC change before placed (before being placed at 25 ± 2° C. and a humidity of RH92.5% for 30 days): 99.89%
- HPLC change before placed (before being placed at 40 ± 2° C. for 30 days): 99.89%
- HPLC change before placed (before being placed at 60 ± 2° C. for 30 days): 99.89%
- stability (overall conclusion from the stability table): good stability
- HPLC change after placed [1]: 99.89%
- crystal form [1]: Crystal form I
- whether the appearance changed [1]: No change
- whether there being apparent moisture absorption [1]: No apparent
- HPLC change after placed [2]: 99.88%
- crystal form [2]: Crystal form I
- whether the appearance changed [2]: No change
- whether there being apparent moisture absorption [2]: No apparent
- HPLC change after placed [3]: 99.87%
- crystal form [3]: Crystal form I
- whether the appearance changed [3]: No change
- whether there being apparent moisture absorption [3]: No apparent

From US20170342061A1 (CHONGQING PHARMACEUTICAL INDUSTRIAL RESEARCH INSTITUTE CO., …, priority 2014, published 2017)
